Laboratory results published in patent publication US20060223826A1, “Indole derivatives as somatostatin agonists or antagonists” (Takeda Pharmaceutical Company Limited Intellectual Property …, priority 2002, published 2006).

Tests used:
[1] = molecular target: T1, human somatostatin receptor 2 (Homo sapiens, UniProt P30874); experiment: Measurement of the binding inhibition rate of 125I-somatostatin; conditions: membrane fraction of SSTR2-HS5-9 CHO cells; 125I-somatostatin-14; 25° C., 60 minutes; compound concentration not given
T1 construct: expressed in transfected cells; host or cells: CHO cells, clone SSTR2-HS5-9 (membrane fraction)
Protocol: Measurement of the Binding Inhibition Rate of ^125I-Somatostatin
The receptor binding inhibition rate (%) of the subject compound was calculated using human.somatostatin receptor 2 expressing CHO cells and SSTR2-HS5-9 described in WO02/16350.
First, SSTR2-HS5-9 (1×10^9) was floated on a phosphate buffered saline supplemented with 5 mM EDTA (PBS-EDTA) and centrifuged. To the cell pellets was added 10 ml of a homogenate buffer for cells (10 mM NaHCO3, 5 mM EDTA, pH 7.5), which was homogenated using a Polytron homogenizer. The supernatant obtained by centrifugation at 400×g for 15 minutes was further centrifuged at 100,000×g for 1 hour to give a precipitate of the membrane fraction. The precipitates ere suspended in 2 ml of a buffer solution for assay [25 mM Tris-HCl, 1 mM EDTA (Ethylenediaminetetraacetic Acid), 0.1% BSA (Bovine Serum Albumin), 0.25 mM PMSF (Phenylmethylsulfonyl Fluoride), 1 μg/ml pepstatin, 20 μg/ml leupeptin, 10 μg/ml Phosphoramidone, pH 7.5], which was centrifuged at 100,000×g for 1 hour. The membrane fraction recovered as precipitates was suspended again in 20 ml of the buffer solution for assay, which was placed in tubes and stored at −80° C. The suspension was thawed and used at every use.
The thus-obtained membrane fraction of SSTR2-HS5-9 cells was diluted with a buffer solution for assay [25 mM Tris-HCl, 1 mM EDTA (Ethylenediaminetetraacetic Acid), 0.1% BSA (Bovine Serum Albumin), 0.25 mM PMSF (Phenylmethylsulfonyl Fluoride), 1 μg/ml pepstatin, 20 μg/ml leupeptin, 10 μg/ml Phosphoramidone, pH 7.51 to adjust the concentration to 3 μg/ml. The diluate was placed in tubes each in quantity of 173 μl. To this were simultaneously added 2 μl of a solution of a subject compound in DMSO and 25 μl of a 200 pM radioisotope-labeled somatostatin-14 (^125I-somatostatin-14: Amersham). For measurement of the maximum binding, a reaction mixture added with 2 μl of DMSO and 25 μl of a 200 pM ^125I-somatostatin was prepared. For measurement of non-specific binding, a reaction mixture added with 2 μl of a 100 μm somatostatin solution in DMSO and 25 μl of a 200 pM ^125I-somatostatin-14 solution was prepared at the same time. The mixtures were allowed to react at 25° C. for 60 minutes. Then, the reaction mixture was filtered by aspiration using a Whatman glass filter (GF-B) treated with polyethylenimine. After filtration, the radioactivity of ^125I-somatostatin-14 remaining on the filter paper was measured by a γ-counter. The binding inhibition rate (%) of each subject compound was calculated by the following formula: (TB−SB)/(TB−NSB)×100 • SB: radioactivity when a subject compound was added • TB: maximum binding radioactivity • NSB: non-specific binding radioactivity

glucagon secretion = experiment: Glucagon secretion inhibitory activity test (rat); format: in vivo; conditions: SD rats, male, fasted; 3 mg/kg body weight orally; insulin 2 U/kg s.c. 120 minutes later; plasma glucagon 30 minutes after insulin
Protocol: Glucagon Secretion Inhibitory Activity Test (Rat)
A 0.5% methylcellulose suspension containing the subject compound (3 mg/kg body weight) (compound administration group) or a 0.5% methylcellulose suspension (compound non-administration group) was orally administered to SD rats (male, 7 weeks of age) after fasting overnight, and 120 minutes later, insulin (2 U/kg body weight, Novo Nordisk) was subcutaneously administered. After 30 minutes from the insulin administration, the blood was drawn from the vein of eyegrounds of the rats using capillary, and blood plasma was separated by centrifugation. The concentration of glucagon in the obtained blood plasma was measured by radioimmunoassay using a Daiichi glucagon kit (Daiichi Isotope). As a non-treated group, the concentration of glucagon in the blood plasma of rat of the compound non-administration group free of insulin administration was measured in the same manner as above. […]

T1 sequence (P30874 whole entry): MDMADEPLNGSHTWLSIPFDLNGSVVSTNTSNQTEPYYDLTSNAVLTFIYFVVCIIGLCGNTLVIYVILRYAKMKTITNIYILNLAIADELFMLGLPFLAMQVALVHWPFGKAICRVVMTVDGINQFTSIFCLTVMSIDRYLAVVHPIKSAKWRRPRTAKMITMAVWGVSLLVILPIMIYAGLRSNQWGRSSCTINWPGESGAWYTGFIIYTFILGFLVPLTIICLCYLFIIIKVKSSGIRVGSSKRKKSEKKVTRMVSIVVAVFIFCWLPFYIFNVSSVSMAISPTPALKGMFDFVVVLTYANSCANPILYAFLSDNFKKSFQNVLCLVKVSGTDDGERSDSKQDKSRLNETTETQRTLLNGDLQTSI

Row | Compound | binding inhibition rate (%) [1] [%] | glucagon secretion (% of control) (glucagon secretion)
1 | C[C@@H](c1c[nH]c2ccccc12)[C@@H](NC(=O)N1CCC(c2ccccc2)CC1)C(=O)Nc1cccc(CN(C)C)c1 [Example 1, N-((1R,2S)-1-(((3-((dimethylamino)methyl)phenyl)amino)carbonyl)-2-(1H-indol-3-yl)propyl)-4-phenyl-1-piperidinecarboxamide] | 98 | 9.5 % of control
2 | C[C@@H](c1c[nH]c2ccccc12)[C@@H](NC(=O)N1CCC(Oc2ccc(F)cc2)CC1)C(=O)Nc1cccc(CN(C)C)c1 [Example 2, N-( (1R,2S)-1-( ((3-((dimethylamino)methyl)phenyl)amino)carbonyl)-2-(1H-indol-3-yl)propyl)-4-(4-fluorophenoxy)-1-piperidinecarboxamide] | 100 | 
3 | CCOc1ccc(CN(C)C)cc1NC(=O)[C@H](NC(=O)N1CCC(c2ccccc2)CC1)[C@@H](C)c1c[nH]c2ccccc12 [Example 54, N-((1R,2S)-1-(((5-((dimethylamino)methyl)-2-ethoxyphenyl)amino)carbonyl)-2-(1H-indol-3-yl)propyl)-4-phenyl-1-piperidinecarboxamide] | 100 | 
4 | CCOc1ccc(CN(C)C)cc1NC(=O)[C@H](NC(=O)N1CCN(c2ccc(F)cc2)CC1)[C@@H](C)c1c[nH]c2ccccc12 [Example 67, N-((1R,2S)-1-(((5-((dimethylamino)methyl)-2-ethoxyphenyl)amino)carbonyl)-2-(1H-indol-3-yl)propyl)-4-(4-fluorophenyl)-1-piperazinecarboxamide] | 96 | 
